The target of the experiment is T1, Recombinant human cathepsin A (Homo sapiens, UniProt P10619).
T1 construct: Recombinant human cathepsin A (residues 29-480, with a C-terminal 10-His tag); 10-His (C); purchased R&D Systems 1049-SE
T1 sequence (P10619 29-312 limits assumed): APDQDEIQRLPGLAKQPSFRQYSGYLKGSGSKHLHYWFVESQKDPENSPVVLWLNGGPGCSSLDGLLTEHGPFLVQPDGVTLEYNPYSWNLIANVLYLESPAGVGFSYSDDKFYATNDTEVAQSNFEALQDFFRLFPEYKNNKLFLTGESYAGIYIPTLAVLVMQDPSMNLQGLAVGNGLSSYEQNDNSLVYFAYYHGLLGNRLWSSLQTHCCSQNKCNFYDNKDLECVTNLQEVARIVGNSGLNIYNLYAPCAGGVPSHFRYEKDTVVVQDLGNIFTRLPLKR
T1 sequence (P10619 327-480 limits assumed): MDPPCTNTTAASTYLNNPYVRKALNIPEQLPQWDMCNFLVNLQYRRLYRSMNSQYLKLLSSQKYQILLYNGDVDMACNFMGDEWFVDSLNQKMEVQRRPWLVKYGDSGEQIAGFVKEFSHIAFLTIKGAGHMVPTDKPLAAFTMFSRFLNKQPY
Description: Cathepsin A inhibitory activity. It counts as biochemical. Particulars: read-out: Activity (2): Cathepsin A inhibitory activity, IC50 class. How it is done:
a) Cathepsin A Inhibitory Activity
Recombinant human cathepsin A (residues 29-480, with a C-terminal 10-His tag; R&D Systems, #1049-SE) was proteolytically activated with recombinant human cathepsin L (R&D Systems, #952-CY). Briefly, cathepsin A was incubated at 10 μg/ml with cathepsin L at 1 μg/ml in activation buffer (25 mM 2-(morpholin-4-yl)-ethanesulfonic acid (MES), pH 6.0, containing 5 mM dithiothreitol (DTT)) for 15 min at 37° C. Cathepsin L activity was then stopped by the addition of the cysteine protease inhibitor E-64 (N-(trans-epoxysuccinyl)-L-leucine-4-guanidinobutylamide; Sigma-Aldrich, #E3132; dissolved in activation buffer/DMSO) to a final concentration of 10 μM.
The activated cathepsin A was diluted in assay buffer (25 mM MES, pH 5.5, containing 5 mM DTT) and mixed with the test compound (dissolved in assay buffer containing (v/v) 3% DMSO) or, in the control experiments, with the vehicle in a multiple assay plate. After incubation for 15 min at room temperature, as substrate then bradykinin carrying an N-terminal®Bodipy FL (4,4-difluoro-5,7-dimethyl-4-bora-3a,4a-diaza-s-indacene-3-propionyl) label (JPT Peptide Technologies GmbH; dissolved in assay buffer) was added to the mixture. The final concentration of cathepsin A was 833 ng/ml and the final concentration of labeled bradykinin 2 μM. After incubation for 15 min at room temperature the reaction was stopped by the addition of stop buffer (130 mM 2-(4-(2-hydroxy-ethyl)-piperazin-1-yl)-ethanesulfonic acid, pH 7.4, containing (v/v) 0.013% Triton X-100, 0.13% Coating Reagent 3 (Caliper Life Sciences), 6.5% DMSO and 20 μM ebelactone B (Sigma, # E0886)).
Uncleaved substrate and product were then separated by a microfluidic capillary electrophoresis on a LabChip® 3000 Drug Discovery System (12-Sipper-Chip; Caliper Life Sciences) and quantified by determination of the respective peak areas. Substrate turnover was calculated by dividing product peak area by the sum of substrate and product peak areas, and the enzyme activity and the inhibitory effect of the test compound thus quantified. From the percentage of inhibition of cathepsin A activity observed with the test compound at several concentrations, the inhibitory concentration IC50, i.e. the concentration which effects 50% inhibition of enzyme activity was, calculated.

Broadly, the IC50 is the point on the concentration scale where inhibition reaches its midpoint. On to `CCc1ccc(C(CC(=O)O)NC(=O)c2cc(O)n(-c3cc(C)ccc3C)n2)cc1` (centres unmarked) [Example 41], for which the IC50 was 1000 to 30000 nM.

For `Cc1ccc(C)c(-n2nc(C(=O)NC3(CC(=O)O)CCCC3)cc2O)c1` [Example 42], the IC50 lay in the range of 1000 to 30000 nM.

In the case of `Cc1ccc(C)c(-n2nc(C(=O)NC(CC(=O)O)C3CCOCC3)cc2O)c1` (centres unmarked) [Example 43], the IC50 lay within 1000 to 30000 nM. The result for `Cc1ccc(C)c(-n2nc(C(=O)NC(CC(=O)O)C3CCCC3)cc2O)c1` (centres unmarked) [Example 44] reads 1000 to 30000 nM; that for `Cc1ccc(C)c(-n2nc(C(=O)NC(CC(=O)O)c3ccc(Cl)cc3)cc2O)c1` (centres unmarked) [Example 45], 1000 to 30000 nM; that for `Cc1ccc(C)c(-n2nc(C(=O)NC(CC(=O)O)c3ccc(CC(C)C)cc3)cc2O)c1` (centres unmarked) [Example 46], 1000 to 30000 nM. Under `Cc1ccc(C)c(-n2nc(C(=O)NC(CC(=O)O)c3ccc(F)c(F)c3)cc2O)c1` (centres unmarked) [Example 47] stands 1000 to 30000 nM.

`Cc1ccc(C)c(-n2nc(C(=O)NC(CC(=O)O)c3ccc(Cl)c(Cl)c3)cc2O)c1` (centres unmarked) [Example 48]: the IC50 fell in the range of 1000 to 30000 nM. Regarding `Cc1ccc(C)c(-n2nc(C(=O)NC(CC(=O)O)c3cccc(F)c3)cc2O)c1` (centres unmarked) [Example 49], the IC50 lay within 1000 to 30000 nM. Under `Cc1ccc(C(CC(=O)O)NC(=O)c2cc(O)n(-c3cc(C)ccc3C)n2)cc1` (centres unmarked) [Example 50] stands 1000 to 30000 nM; under `Cc1cccc(C(CC(=O)O)NC(=O)c2cc(O)n(-c3cc(C)ccc3C)n2)c1` (centres unmarked) [Example 51], 1000 to 30000 nM. The result for `Cc1ccc(C)c(-n2nc(C(=O)NC(CC(=O)O)c3ccc(C#N)cc3)cc2O)c1` (centres unmarked) [Example 52] reads 1000 to 30000 nM.

With `Cc1ccc(C)c(-n2nc(C(=O)NC(CC(=O)O)c3cccc(C(F)(F)F)c3)cc2O)c1` (centres unmarked) [Example 53], the IC50 was 1000 to 30000 nM.

For the compound `COc1ccc(C(CC(=O)O)NC(=O)c2cc(O)n(-c3cc(C)ccc3C)n2)cc1F` (centres unmarked) [Example 54], the IC50 was 1000 to 30000 nM. Under `Cc1ccc(C)c(-n2nc(C(=O)NC(CC(=O)O)c3ccc(-c4ccccc4)cc3)cc2O)c1` (centres unmarked) [Example 55] stands 100 to 1000 nM. Under `Cc1ccc(C)c(-n2nc(C(=O)NC(CC(=O)O)c3cc(F)cc(F)c3)cc2O)c1` (centres unmarked) [Example 56] stands 1000 to 30000 nM; under `Cc1ccc(C)c(-n2nc(C(=O)NC(CC(=O)O)c3ccc(C(F)(F)F)cc3)cc2O)c1` (centres unmarked) [Example 57], 1000 to 30000 nM. `O=C(O)CC(NC(=O)c1cc(O)n(-c2ccccc2)n1)c1ccc(Cl)cc1` (centres unmarked) [Example 58]: the IC50 lay in the range of 100 to 1000 nM. The result for `O=C(O)CC(NC(=O)c1cc(O)n(-c2ccccc2)n1)c1cc(C(F)(F)F)cc(C(F)(F)F)c1` (centres unmarked) [Example 59] reads 1000 to 30000 nM; that for `O=C(O)CC(NC(=O)c1cc(O)n(-c2ccccc2)n1)c1ccc(F)c(F)c1` (centres unmarked) [Example 60], 1000 to 30000 nM; that for `O=C(O)CC(NC(=O)c1cc(O)n(-c2ccccc2)n1)c1ccc(F)cc1` (centres unmarked) [Example 61], 1000 to 30000 nM. Under `O=C(O)CC(NC(=O)c1cc(O)n(-c2ccccc2)n1)c1ccc(Cl)c(Cl)c1` (centres unmarked) [Example 62] stands 100 to 1000 nM; under `O=C(O)CC(NC(=O)c1cc(O)n(-c2ccccc2)n1)c1cccc(F)c1` (centres unmarked) [Example 63], 1000 to 30000 nM; under `Cc1ccc(C(CC(=O)O)NC(=O)c2cc(O)n(-c3ccccc3)n2)cc1` (centres unmarked) [Example 64], 100 to 1000 nM. The result for `Cc1cccc(C(CC(=O)O)NC(=O)c2cc(O)n(-c3ccccc3)n2)c1` (centres unmarked) [Example 65] reads 100 to 1000 nM; that for `CC(C)(C)c1ccc(C(CC(=O)O)NC(=O)c2cc(O)n(-c3ccccc3)n2)cc1` (centres unmarked) [Example 66], 1000 to 30000 nM. Turning to `O=C(O)CC(NC(=O)c1cc(O)n(-c2ccccc2)n1)c1cccc(C(F)(F)F)c1` (centres unmarked) [Example 67], the IC50 was in the range of 100 to 1000 nM. Under `COc1ccc(C(CC(=O)O)NC(=O)c2cc(O)n(-c3ccccc3)n2)cc1F` (centres unmarked) [Example 68] stands 1000 to 30000 nM; under `O=C(O)CC(NC(=O)c1cc(O)n(-c2ccccc2)n1)c1ccc(-c2ccccc2)cc1` (centres unmarked) [Example 69], 100 to 1000 nM; under `O=C(O)CC(NC(=O)c1cc(O)n(-c2ccccc2)n1)c1cc(F)cc(F)c1` (centres unmarked) [Example 70], 1000 to 30000 nM.

Consider `O=C(O)CC(NC(=O)c1cc(O)n(-c2ccccc2)n1)c1ccc(C(F)(F)F)cc1` (centres unmarked) [Example 71], for which the IC50 was 1000 to 30000 nM. Under `O=C(O)CC(NC(=O)c1cc(O)n(-c2ccc(F)c(Cl)c2)n1)c1ccc(F)cc1` (centres unmarked) [Example 72] stands 1000 to 30000 nM.

On to `O=C(O)CC(NC(=O)c1cc(O)n(-c2ccc(Cl)cc2)n1)c1ccc(F)cc1` (centres unmarked) [Example 73, 3-{[1-(4-Chloro-phenyl)-5-hydroxy-1H-pyrazole-3-carbonyl]-amino}-3-(4-fluoro-phenyl)-propionic acid], for which the IC50 is 1000 to 30000 nM.

`Cc1ccccc1[C@H](CC(=O)O)NC(=O)c1cc(O)n(-c2cccc(F)c2)n1` [Example 74]: the IC50 is under 100 nM. Under `Cc1ccccc1[C@H](CC(=O)O)NC(=O)c1cc(O)n(-c2cccc(Cl)c2)n1` [Example 75] stands 100 to 1000 nM. Under `Cc1ccccc1[C@H](CC(=O)O)NC(=O)c1cc(O)n(-c2ccc(F)cc2)n1` [Example 76] stands under 100 nM; under `Cc1ccccc1[C@H](CC(=O)O)NC(=O)c1cc(O)n(-c2ccccc2Cl)n1` [Example 77], under 100 nM; under `Cc1cc(C)cc(-n2nc(C(=O)NC(CC(=O)O)c3ccccc3C)cc2O)c1` (centres unmarked) [Example 78], 1000 to 30000 nM. Under `Cc1ccccc1C(CC(=O)O)NC(=O)c1cc(O)n(-c2ccc(Cl)cc2)n1` (centres unmarked) [Example 79] stands 100 to 1000 nM; under `Cc1ccccc1C(CC(=O)O)NC(=O)c1cc(O)n(-c2ccc(F)c(Cl)c2)n1` (centres unmarked) [Example 80], 100 to 1000 nM. For the compound `Cc1ccccc1[C@H](CC(=O)O)NC(=O)c1cc(O)n(-c2ccccc2)n1` [Example 82], the IC50 is under 100 nM. The result for `Cc1ccccc1[C@@H](CC(=O)O)NC(=O)c1cc(O)n(-c2ccccc2)n1` [Example 83] reads 1000 to 30000 nM; that for `Cc1ccc(C(CC(=O)O)NC(=O)c2cc(O)n(-c3ccccc3)n2)c(C)c1` (centres unmarked) [Example 84], 100 to 1000 nM; that for `Cc1cc(F)ccc1C(CC(=O)O)NC(=O)c1cc(O)n(-c2ccccc2)n1` (centres unmarked) [Example 85], 100 to 1000 nM. The result for `O=C(O)CC(NC(=O)c1cc(O)n(-c2ccc(F)cc2)n1)c1ccc(F)cc1F` (centres unmarked) [Example 86] reads 1000 to 30000 nM. Under `COc1ccc(-n2nc(C(=O)N[C@@H](CC(=O)O)c3ccccc3C)cc2O)cc1` [Example 87] stands 100 to 1000 nM. As to `COc1ccc(C(CC(=O)O)NC(=O)c2cc(O)n(-c3ccc(F)c(Cl)c3)n2)c(F)c1` (centres unmarked) [Example 88], the IC50 fell in the range of 1000 to 30000 nM.

As for `Cc1ccc(C(CC(=O)O)NC(=O)c2cc(O)n(-c3ccc(F)cc3)n2)c(C)c1` (centres unmarked) [Example 89], the IC50 was 100 to 1000 nM. Under `COc1ccc(C(CC(=O)O)NC(=O)c2cc(O)n(-c3ccc(F)cc3)n2)c(F)c1` (centres unmarked) [Example 90] stands 1000 to 30000 nM; under `Cc1ccc(C(CC(=O)O)NC(=O)c2cc(O)n(-c3ccc(F)c(Cl)c3)n2)c(C)c1` (centres unmarked) [Example 91], 1000 to 30000 nM. Under `COc1ccc(C(CC(=O)O)NC(=O)c2cc(O)n(-c3ccccc3)n2)c(F)c1` (centres unmarked) [Example 92] stands 100 to 1000 nM; under `COc1cccc(-n2nc(C(=O)N[C@@H](CC(=O)O)c3ccccc3C)cc2O)c1` [Example 94], 100 to 1000 nM. Under `O=C(O)C[C@H](NC(=O)c1cc(O)n(-c2ccccc2)n1)c1ccc(Cl)cc1Cl` [Example 95] stands 100 to 1000 nM; under `O=C(O)C[C@H](NC(=O)c1cc(O)n(-c2ccccc2)n1)c1ccccc1F` [Example 96], 100 to 1000 nM; under `O=C(O)C[C@H](NC(=O)c1cc(O)n(-c2ccccc2)n1)c1ccccc1C(F)(F)F` [Example 97], 100 to 1000 nM. Take `O=C(O)C[C@H](NC(=O)c1cc(O)n(-c2ccccc2)n1)c1ccc(Cl)cc1` [Example 98]: the IC50 lay in the range of 100 to 1000 nM.
